ChEMBL document CHEMBL1145771 (Bioorg Med Chem Lett, 2003)

Experiments:
[1] = Selectivity ratio for inhibition of Protein phosphatase 1 and Protein phosphatase 2A
[2] = Inhibition of protein phosphatase 1 (PP1) was determined by standard phosphorylase a inhibition assay; parameters: species or system Oryctolagus cuniculus

| Selectivity ratio [1] | IC50 [2] | SMILES |
| --- | --- | --- |
| 1.5 | 19 µM | CO[C@@H]([C@H](O)CC(=O)[C@@H](C)[C@@H](O)CC[C@@H](C)[C@@H]1O[C@]2(CC[C@@H](C)[C@H](CC[C@H](C)C(C)=O)O2)CC[C@@H]1C)[C@H](OC(=O)C[C@](C)(O)C(=O)O)C(C)C |
| 1.3 | 80 µM | CO[C@@H]([C@H](O)CC(=O)[C@@H](C)[C@@H](O)CC[C@@H](C)[C@@H]1O[C@]2(CC[C@@H](C)[C@H](CC[C@H](C)C(C)=O)O2)CC[C@@H]1C)[C@H](OC(=O)C[C@@](C)(O)C(=O)O)C(C)C |

Continued, molecule first:

| SMILES | Selectivity ratio [1] | IC50 [2] |
| --- | --- | --- |
| CO[C@@H]([C@H](O)CC(=O)[C@@H](C)[C@@H](O)CC[C@@H](C)[C@@H]1O[C@]2(CC[C@@H](C)[C@H](CC[C@H](C)C(C)=O)O2)CC[C@@H]1C)[C@H](OC(=O)CCCP(=O)(O)O)C(C)C | 2 | 150 µM |
| CO[C@H]([C@H](O)CC(=O)[C@@H](C)[C@@H](O)CC[C@@H](C)[C@@H]1O[C@]2(CC[C@@H](C)[C@H](CC[C@H](C)C(C)=O)O2)CC[C@@H]1C)[C@H](OC(=O)C[C@@H](O)C1=C(C)C(=O)OC1=O)C(C)C [TAUTOMYCIN] | – | 1.9 µM |
| CO[C@@H]([C@H](O)CC(=O)[C@@H](C)[C@@H](O)CC[C@@H](C)[C@@H]1O[C@]2(CC[C@@H](C)[C@H](CC[C@H](C)C(C)=O)O2)CC[C@@H]1C)[C@H](OC(=O)C[C@@H](O)/C=C(\C)C(=O)O)C(C)C | 1.9 | 2.1 µM |
| CO[C@@H]([C@H](O)CC(=O)[C@@H](C)[C@@H](O)CC[C@@H](C)[C@@H]1O[C@]2(CC[C@@H](C)[C@H](CC[C@H](C)C(C)=O)O2)CC[C@@H]1C)[C@H](OC(=O)C[C@H](O)C1=C(C)C(=O)OC1=O)C(C)C | – | 0.13 µM |
